Results: ChEMBL document CHEMBL1131027, “Enhancement of oral absorption in selective 5-HT1D receptor agonists: fluorinated 3-[3-(piperidin-1-yl)propyl]indoles” (J Med Chem, 1998)

Tests used:
[1] = The ionization constant (pKa) for the compound measured potentiometrically
[2] = molecular target: T1, 5-hydroxytryptamine receptor 1D (Homo sapiens, UniProt P28221); assay: Displacement of [3H]5-HT from human 5-hydroxytryptamine 1D receptor expressed in CHO cells; format: cell-based
[3] = molecular target: T1, 5-hydroxytryptamine receptor 1D; assay: Agonist induced [35S]GTP-gamma-S, binding in CHO cells expressing 5-HT 1d receptor; format: functional, cell-based
Rattus norvegicus [4] = assay: Concentration of compound in rat plasma obtained from cardiac (systemic) blood samples following peroral administration at 3 mg/kg.; format: functional, organism-based; design: dose 3 mg/kg
Rattus norvegicus [5] = assay: Concentration of compound in rat plasma obtained from hepatic portal vein(hpv) blood samples following peroral administration at 3 mg/kg.; format: functional, organism-based; design: dose 3 mg/kg
[6] = molecular target: Serotonin 1 receptors; 5-HT1B & 5-HT1D (Homo sapiens) (UniProt P28222+P28221); assay: Relative binding to serotonin 5-HT1D and 5-HT1B receptors; format: protein assay
[7] = molecular target: T1, 5-hydroxytryptamine receptor 1D; assay: Percent efficacy relative to 5-HT treatment of CHO cells expressing 5-HT 1d receptor; format: functional, cell-based

T1 sequence (P28221 whole entry): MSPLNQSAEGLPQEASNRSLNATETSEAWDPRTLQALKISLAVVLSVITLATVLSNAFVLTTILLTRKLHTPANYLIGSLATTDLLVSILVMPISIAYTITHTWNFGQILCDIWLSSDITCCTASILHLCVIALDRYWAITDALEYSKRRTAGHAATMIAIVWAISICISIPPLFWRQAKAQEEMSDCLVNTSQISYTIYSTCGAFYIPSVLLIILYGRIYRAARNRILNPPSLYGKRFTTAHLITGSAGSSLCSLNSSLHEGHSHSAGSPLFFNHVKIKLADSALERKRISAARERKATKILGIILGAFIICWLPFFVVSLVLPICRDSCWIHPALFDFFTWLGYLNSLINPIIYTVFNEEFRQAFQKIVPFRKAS

SMILES	pKa [1]	IC50 [2]	EC50 [3]	Concentration (Rattus norvegicus [4])	Concentration (Rattus norvegicus [5])	Selectivity [6]	Efficacy [7]
FC1(Cc2ccccc2)CCN(CCCc2c[nH]c3ccc(-n4cnnc4)cc23)CC1	8.8	1 nM	0.5 nM	52 ng/mL	570 ng/mL	16	58%
Fc1cccc(CCN2CCN(CC(F)Cc3c[nH]c4ccc(-n5cnnc5)cc34)CC2)c1 (stereo unspecified)		3.7 nM	4.4 nM			324	98%
CN(Cc1ccccc1)C1CCN(CC(F)Cc2c[nH]c3ccc(-n4cnnc4)cc23)CC1 (stereo unspecified)		5.4 nM	18 nM	2 ng/mL	57 ng/mL	230	104%
CN(Cc1ccccc1)C1CCN(CCCc2c[nH]c3ccc(-n4cnnc4)cc23)CC1				< 1 ng/mL	4 ng/mL	66	94%
OC[C@H](NC1CCN(CCCc2c[nH]c3ccc(-n4cnnc4)cc23)CC1)c1ccc(F)cc1				< 2 ng/mL	< 2 ng/mL	206	104%
CN(Cc1ccccc1)[C@@H]1CCN(CCCc2c[nH]c3ccc(-n4cnnc4)cc23)C[C@@H]1F	8	13 nM		2 ng/mL	216 ng/mL	18	
FC(Cc1c[nH]c2ccc(-n3cnnc3)cc12)CN1CCC(Cc2ccccc2)CC1 (stereo unspecified)	8.7	0.95 nM	11 nM	196 ng/mL	781 ng/mL	65	61%
c1ccc(CN2CCN(CCCc3c[nH]c4ccc(-n5cnnc5)cc34)CC2)cc1	8.2			42 ng/mL	178 ng/mL	40	
OC[C@H](NC1CCN(CC(F)Cc2c[nH]c3ccc(-n4cnnc4)cc23)CC1)c1ccc(F)cc1 (stereo partly specified)		1.4 nM	1.7 nM	< 1 ng/mL	5 ng/mL	225	95%
c1ccc(CC2CCN(CCCc3c[nH]c4ccc(-n5cnnc5)cc34)CC2)cc1	9.7	0.35 nM	0.6 nM	< 2 ng/mL	25 ng/mL	57	62%
Fc1cccc(CCC2(F)CCN(CCCc3c[nH]c4ccc(-n5cnnc5)cc34)CC2)c1		0.75 nM	5.1 nM			30	71%
CN(Cc1ccccc1)[C@H]1CCN(CCCc2c[nH]c3ccc(-n4cnnc4)cc23)C[C@H]1F		2.2 nM				6	
Fc1cccc(CCN2CCN(CCCc3c[nH]c4ccc(-n5cnnc5)cc34)CC2)c1						125	
